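How tested: cells in 96-well plates exposed to compound for 48 hours at five concentrations. GI50 is the concentration that inhibits growth by half. TGI: total growth inhibition.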
Key:
Experiment in all cases: growth of human tumour cells (NCI), 48 h
CCRF-CEM leukemia = test system: CCRF-CEM leukemia
EKVX NSCLC = test system: EKVX NSCLC
HCT-116 colon = test system: HCT-116 colon
HCT-15 colon = test system: HCT-15 colon
HL-60(TB) leukemia = test system: HL-60(TB) leukemia
HOP-92 NSCLC = test system: HOP-92 NSCLC
NCI-H226 lung = test system: NCI-H226 lung
NCI-H460 lung = test system: NCI-H460 lung
OVCAR-3 ovarian = test system: OVCAR-3 ovarian
UACC-62 melanoma = test system: UACC-62 melanoma

Row | SMILES | TGI (CCRF-CEM leukemia) [µM] | TGI (EKVX NSCLC) [µM] | TGI (HCT-116 colon) [µM] | TGI (HCT-15 colon) [µM] | TGI (HL-60(TB) leukemia) [µM] | TGI (HOP-92 NSCLC) [µM] | TGI (NCI-H226 lung) [µM] | TGI (NCI-H460 lung) [µM] | TGI (OVCAR-3 ovarian) [µM] | TGI (UACC-62 melanoma) [µM] | GI50 (HCT-116 colon) [µM] | GI50 (OVCAR-3 ovarian) [µM]
1 | c1ccc(CSC2(SCc3ccccc3)CCCCC2)cc1 | > 10 | > 10 | > 10 | > 10 | > 10 | > 10 | > 10 | > 10 | > 10 | > 10 |  | 
2 | COc1ccc(NC(=S)c2ccoc2C)cc1CC(=O)OC(C)C | > 100 | > 100 | > 100 | > 100 | 54.5 | 67.9 | 68 | > 100 | > 100 | > 100 |  | 
3 | COc1ccc(/C=C2\C[C@H]3[C@@H]4CCC5=CC(=O)CC[C@]5(C)[C@H]4CC[C@]3(C)C2=O)cc1OC | 47.2 | 61.2 | > 100 | > 100 | 6.91 | > 100 | > 100 | > 100 | > 100 | > 100 |  | 
4 | O=C(N/N=C/c1ccccc1)c1cccc2nc3ccccc3nc12 | > 100 | > 100 | > 100 | > 100 | > 100 | > 100 | > 100 | 31.4 | > 100 | > 100 |  | 
5 | CCOP(=O)(OCC)OC1c2[nH]cc(C(=O)OCc3ccccc3)c2-c2cc(C(=O)OC)[nH]c2C1OC (configuration not stated) | > 100 | 70.7 | > 85.4 | > 100 | > 100 | 26.3 | 58.3 | > 100 | 54.8 | > 79.6 |  | 
6 | CCOC(=O)c1c(NC(=S)Nc2ccccc2)sc2c1CCOC2 | > 100 | > 100 | > 100 | > 100 | > 100 | 89.4 | > 100 | > 100 | > 100 | > 100 |  | 
7 | COc1ccc(-c2oc3c(OC)c(OC)cc(O)c3c(=O)c2OC)cc1 | > 100 | > 100 | > 100 | > 100 | > 100 | > 100 | > 100 | > 100 | > 100 | > 100 |  | 
8 | CC(Cl)CC(=O)OCC1CCCN2CCCCC12 (configuration not stated) | > 100 | > 100 | > 100 | > 100 | > 100 | > 100 | > 100 | > 100 | > 100 | > 100 |  | 
9 | CC(C)NC(=O)OCc1c2c(n(C)c1COC(=O)NC(C)C)-c1ccccc1CC2 | 7.63 | 33.6 | 23.2 | 27.2 | > 32 | 22.2 | 31.4 | 28.8 | 27.3 | 25.5 |  | 
10 | CC1C(C#N)(C#N)C(C#N)=C(N)C1(Cl)[N+](=O)[O-] (configuration not stated) | 5.12 | 41.4 | 20.3 | 13.1 | 5.16 | 5.91 | 31.6 |  | 22 | 24 |  | 
11 | O=C(c1ccccc1)N1C(=S)N(c2ccccn2)C(=Nc2ccccc2)C1=Nc1ccccc1 | > 24.7 | > 100 | > 77.3 | 14.9 | 14.1 | 20.8 | > 100 | > 70.6 | 45.6 | > 41.3 |  | 
12 | c1ccc2c(c1)OC(N1CCCC1)c1cnc(N3CCOCC3)nc1-2 (configuration not stated) | > 100 | 79.4 | > 100 | > 100 | > 100 | 55.6 | > 100 | > 100 | > 100 | > 100 |  | 
13 | C=C1C[C@H](O)[C@H](Br)C(C)(C)C12CCC(C)(Cl)C(Br)C2 (some centres not stated) | 75 | 1.61 | 16.1 | 19.3 | 13.4 | 8.76 | 12.7 | 9.95 | 15.7 | 15.6 |  | 
14 | CCOc1cc2c(c(OCC)c1O)CC[C@@H]1[C@@H]2CC[C@]2(C)[C@@H](O)CC[C@@H]12 | > 100 | > 100 | 18.1 | 14 | 1.86 | 67.6 | > 100 |  | 3.08 | 27.5 | 0.801 | 0.0896
15 | COc1cccc(/C=C2\S/C(=N/Nc3nc(-c4ccc([N+](=O)[O-])cc4)cs3)NC2=O)c1O | 63.3 | 43 | 27.8 | 33.9 | > 100 | 33.6 | 47.3 | 42 | 30.1 |  |  | 
16 | CNC1(C(=O)O)CC1 | > 100 | > 100 | > 100 | > 100 | > 100 | > 100 | > 100 | > 100 | > 100 | > 100 |  | 
17 | O=C(c1cc2c(c3ccccc13)NC1(CCCCC1)N=C2C(F)(F)F)C(F)(F)F | 13.1 | 15.7 | 12.6 | 16.7 | 9.89 | 13.4 | 11 | 10.9 | 7.81 | 13.6 |  | 

Row | SMILES | TGI (CCRF-CEM leukemia) [µM] | TGI (EKVX NSCLC) [µM] | TGI (HCT-116 colon) [µM] | TGI (HCT-15 colon) [µM] | TGI (HL-60(TB) leukemia) [µM] | TGI (HOP-92 NSCLC) [µM] | TGI (NCI-H226 lung) [µM] | TGI (NCI-H460 lung) [µM] | TGI (OVCAR-3 ovarian) [µM] | TGI (UACC-62 melanoma) [µM] | GI50 (HCT-116 colon) [µM] | GI50 (OVCAR-3 ovarian) [µM]
18 | Cc1ccc(C(=O)N/N=C(\N=Nc2ccc(C(=O)O)cc2)c2ccc(N(CCC#N)CCC#N)cc2C)cc1 | > 100 | > 100 | > 100 | > 100 | > 100 | > 100 | > 100 | > 100 | > 100 |  |  | 
19 | CNc1nc(C(N)=O)c(N)s1 | > 100 | > 100 | > 100 | > 100 | > 100 | > 100 | > 100 | > 100 | > 100 | > 100 |  | 
20 | CC(=O)CC1=C(OC(C)C)C2(OCCO2)C1O (configuration not stated) | > 100 | > 100 | > 100 | > 100 | > 100 | > 100 | > 100 | > 100 | > 100 | > 100 |  | 
21 | CC(C)Oc1c(-c2ccc(F)cc2)c(O)c2c3c1oc(=O)n3C=CC2C (configuration not stated) | 29.8 | 30.6 | 25.5 | 29.7 | 31 | 28 | 26.9 | 29.1 | 27.9 | 29.4 |  | 
22 | O=C1CC(NCc2ccccc2)c2c(Cl)sc(Cl)c21 (configuration not stated) | 9.44 | > 100 | 33.1 | 46.9 | 41.6 | 64.8 | > 63.5 | > 100 | 47.3 | 24.3 |  | 
23 | COC(=O)/C=C1/OC(c2ccc(OC)cc2)=C(Cl)C1=O | 17.7 | 39.4 | 26.5 | 33.9 | 12.2 | 57.5 | 51.1 | 42.9 | 26.3 | 37.9 |  | 
24 | CN1CC2CN(Cc3ccccc3)CCN2c2cccnc21 (configuration not stated) | > 100 | > 100 | 37.7 | > 100 | > 100 | > 100 | > 100 | > 100 | > 100 | > 100 |  | 
25 | O=C(OCCNC(=O)N1CC1)OCCNC(=O)N1CC1 | > 10 | > 10 | > 10 | > 10 | > 10 | > 10 | > 10 | > 10 | > 10 | > 10 |  | 
26 | CC(C)N(C(C)C)S(=O)(=O)C[C@]12CC[C@H](CC13OCC(CS(=O)(=O)c1ccccc1)O3)C2(C)C (some centres not stated) | > 100 | > 100 | > 100 | > 100 | 61.2 | > 75.3 | > 100 | > 100 | > 70.8 | > 100 |  | 
27 | ClCCCCCc1c2nc(c(CCCCCCl)c3ccc([nH]3)c(CCCCCCl)c3ccc([nH]3)c(CCCCCCl)c3nc1C=C3)C=C2 | > 100 | > 100 | > 100 | > 100 | > 100 | > 100 | > 100 | > 100 | > 100 | > 100 |  | 
28 | c1ccc([I+]c2ccccc2)cc1 | > 100 | > 100 | > 100 | > 100 | > 100 | > 100 | > 100 | > 100 | > 100 |  |  | 
29 | CCCCCCCCCCCCCCCCCCOCC(O)COP(=O)(O)OCC1OC(n2ccc(N)nc2=O)C(O)C1O (configuration not stated) | 18.6 | > 100 | > 100 | 47.9 | 30.8 | 71.8 | > 100 | 14.8 | > 100 | 70.2 |  | 
30 | Cc1cnc2sn(-c3ccc(Br)cc3)c(=O)c2c1 | 69.7 | > 100 | > 100 | > 100 | 49.7 | 68.8 | > 100 | > 100 | 62.7 | > 100 |  | 
31 | CC(=O)Nc1cccc(N=NN(C)C)c1 | > 100 | > 100 | > 100 | > 100 | > 100 | > 100 | > 100 | > 100 | > 100 | > 100 |  | 
32 | COc1cccc(C2c3cc4c(cc3OC(Nc3ccccc3)C2C)OCO4)c1OC (configuration not stated) | 27.6 | > 100 | > 100 | > 100 | 6.26 | 60.1 | 12.1 | > 100 | > 100 | > 100 |  | 
33 | CC(=O)N(C(C)=O)c1cc2c3c(c1)CCCN3CCC2 | > 10 | > 10 | > 10 | > 10 | > 10 | > 10 | > 10 | > 10 | > 10 | > 10 |  | 
34 | OC1CSc2nc3ccccc3n2C1 (configuration not stated) | > 100 | > 100 | > 100 | > 100 | > 100 | > 100 | > 100 | > 100 | > 100 | > 100 |  | 
